Laboratory results reported in PubChem BioAssay AID270 (DTP/NCI, 2004).
Several values for one entry are separate records, joined by “and”; a condition that tells them apart may be missing. Identical values can stand only once. Results filed as inconclusive are left out.

System: BDF1 mice, s.c. Lewis lung carcinoma, T/C %
Test: NCI In Vivo Anticancer Drug Screen. Data for tumor model Lewis Lung Carcinoma (subcutaneous) in B6D2F1 (BDF1) mice
Summary of the method: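 Tumor-bearing mice were treated with test compound, and either survival or tumor size was recorded. Values are the treated-group measurement divided by that of the vehicle-treated control group.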

## O=C1c2ccccc2C(=O)c2c(NCCNCCO)ccc(NCCNCCO)c21
endpoint: median survival time, dose: 0.25 mg/kg/injection, schedule: Q01DX009 (ip), vehicle: Klucel (hydroxypropylcellulose) (HPC), higher = longer survival
  T/C: 120 % of control
endpoint: median survival time, dose: 0.25 mg/kg/injection, schedule: Q01DX009 (ip), vehicle: water, higher = longer survival
  T/C: 106 % of control
endpoint: median survival time, dose: 0.5 mg/kg/injection, schedule: Q01DX009 (ip), vehicle: Klucel (hydroxypropylcellulose) (HPC), higher = longer survival
  T/C: 123 % of control
endpoint: median survival time, dose: 0.5 mg/kg/injection, schedule: Q01DX009 (ip), vehicle: saline with Tween-80, higher = longer survival
  T/C: 86 % of control
endpoint: median survival time, dose: 0.5 mg/kg/injection, schedule: Q01DX009 (ip), vehicle: saline, higher = longer survival
  T/C: 114 % of control
endpoint: median survival time, dose: 0.5 mg/kg/injection, schedule: Q01DX009 (ip), vehicle: water, higher = longer survival
  T/C: 109 % of control
endpoint: median survival time, dose: 1.0 mg/kg/injection, schedule: Q01DX009 (ip), vehicle: Klucel (hydroxypropylcellulose) (HPC), higher = longer survival
  T/C: 101 % of control
endpoint: median survival time, dose: 1.0 mg/kg/injection, schedule: Q01DX009 (ip), vehicle: saline with Tween-80, higher = longer survival
  T/C: 115 % of control
endpoint: median survival time, dose: 1.0 mg/kg/injection, schedule: Q01DX009 (ip), vehicle: saline, higher = longer survival
  T/C: 92 % of control and 94 % of control and 108 % of control
endpoint: median survival time, dose: 1.0 mg/kg/injection, schedule: Q01DX009 (ip), vehicle: water, higher = longer survival
  T/C: 89 % of control
endpoint: median survival time, dose: 2.0 mg/kg/injection, schedule: Q01DX009 (ip), vehicle: Klucel (hydroxypropylcellulose) (HPC), higher = longer survival
  T/C: 89 % of control
endpoint: median survival time, dose: 2.0 mg/kg/injection, schedule: Q01DX009 (ip), vehicle: acid diluted with saline, higher = longer survival
  T/C: 89 % of control
endpoint: median survival time, dose: 2.0 mg/kg/injection, schedule: Q01DX009 (ip), vehicle: saline with Tween-80, higher = longer survival
  T/C: 95 % of control
endpoint: median survival time, dose: 2.0 mg/kg/injection, schedule: Q01DX009 (ip), vehicle: saline, higher = longer survival
  T/C: 102 % of control
endpoint: median survival time, dose: 2.0 mg/kg/injection, schedule: Q01DX009 (ip), vehicle: water, higher = longer survival
  T/C: 96 % of control and 115 % of control
endpoint: median survival time, dose: 4.0 mg/kg/injection, schedule: Q01DX009 (ip), vehicle: acid diluted with saline, higher = longer survival
  T/C: 95 % of control
endpoint: median survival time, dose: 4.0 mg/kg/injection, schedule: Q01DX009 (ip), vehicle: other, higher = longer survival
  T/C: 106 % of control
endpoint: median survival time, dose: 4.0 mg/kg/injection, schedule: Q01DX009 (ip), vehicle: saline, higher = longer survival
  T/C: 91 % of control
endpoint: median survival time, dose: 4.0 mg/kg/injection, schedule: Q01DX009 (ip), vehicle: water, higher = longer survival
  T/C: 88 % of control and 105 % of control
endpoint: median survival time, dose: 8.0 mg/kg/injection, schedule: Q01DX009 (ip), vehicle: Klucel (hydroxypropylcellulose) (HPC), higher = longer survival
  T/C: 109 % of control and 120 % of control
endpoint: median survival time, dose: 8.0 mg/kg/injection, schedule: Q01DX009 (ip), vehicle: acid diluted with saline, higher = longer survival
  T/C: 90 % of control
endpoint: median survival time, dose: 8.0 mg/kg/injection, schedule: Q01DX009 (ip), vehicle: other, higher = longer survival
  T/C: 103 % of control
endpoint: median survival time, dose: 8.0 mg/kg/injection, schedule: Q01DX009 (ip), vehicle: saline, higher = longer survival
  T/C: 95 % of control
endpoint: median survival time, dose: 8.0 mg/kg/injection, schedule: Q01DX009 (ip), vehicle: water, higher = longer survival
  T/C: 88 % of control
endpoint: median survival time, dose: 10.0 mg/kg/injection, schedule: Q## X004 (ip), vehicle: saline, higher = longer survival
  T/C: 97 % of control
endpoint: median survival time, dose: 16.0 mg/kg/injection, schedule: Q01DX009 (ip), vehicle: Klucel (hydroxypropylcellulose) (HPC), higher = longer survival
  T/C: 107 % of control
endpoint: median survival time, dose: 16.0 mg/kg/injection, schedule: Q01DX009 (ip), vehicle: acid diluted with saline, higher = longer survival
  T/C: 100 % of control
endpoint: median survival time, dose: 16.0 mg/kg/injection, schedule: Q01DX009 (ip), vehicle: saline, higher = longer survival
  T/C: 99 % of control
endpoint: median survival time, dose: 16.0 mg/kg/injection, schedule: Q01DX009 (ip), vehicle: water, higher = longer survival
  T/C: 102 % of control
endpoint: median survival time, dose: 20.0 mg/kg/injection, schedule: Q## X004 (ip), vehicle: saline, higher = longer survival
  T/C: 93 % of control
endpoint: median survival time, dose: 40.0 mg/kg/injection, schedule: Q## X004 (ip), vehicle: saline, higher = longer survival
  T/C: 93 % of control

## CC(=O)CC(C)=O.CC(=O)CC(C)=O.CC(=O)CC(C)=O.[V]
endpoint: median survival time, dose: 3.12 mg/kg/injection, schedule: Q01DX009 (ip), vehicle: saline, higher = longer survival
  T/C: 109 % of control
endpoint: median survival time, dose: 6.25 mg/kg/injection, schedule: Q01DX009 (ip), vehicle: saline, higher = longer survival
  T/C: 109 % of control
endpoint: median survival time, dose: 12.5 mg/kg/injection, schedule: Q01DX009 (ip), vehicle: saline, higher = longer survival
  T/C: 94 % of control

## NC(=O)NC1NC(=O)NC1=O (stereo not given)
endpoint: mean tumor weight, dose: 15.6 mg/kg/injection, schedule: Q01DX011 (ip), vehicle: saline, higher = larger tumour
  T/C: 67 % of control
endpoint: mean tumor weight, dose: 31.3 mg/kg/injection, schedule: Q01DX011 (ip), vehicle: saline, higher = larger tumour
  T/C: 97 % of control
endpoint: mean tumor weight, dose: 62.5 mg/kg/injection, schedule: Q01DX011 (ip), vehicle: saline, higher = larger tumour
  T/C: 69 % of control and 76 % of control
endpoint: mean tumor weight, dose: 125.0 mg/kg/injection, schedule: Q01DX011 (ip), vehicle: saline, higher = larger tumour
  T/C: 106 % of control
endpoint: mean tumor weight, dose: 250.0 mg/kg/injection, schedule: Q01DX011 (ip), vehicle: saline, higher = larger tumour
  T/C: 103 % of control
endpoint: mean tumor weight, dose: 500.0 mg/kg/injection, schedule: Q01DX011 (ip), vehicle: saline, higher = larger tumour
  T/C: 101 % of control

## Cc1ccc(NC(=O)N(CCCl)N=O)cc1C
endpoint: median survival time, dose: 3.12 mg/kg/injection, schedule: Q01DX009 (ip), vehicle: Klucel (hydroxypropylcellulose) (HPC), higher = longer survival
  T/C: 112 % of control
endpoint: median survival time, dose: 6.25 mg/kg/injection, schedule: Q01DX009 (ip), vehicle: Klucel (hydroxypropylcellulose) (HPC), higher = longer survival
  T/C: 87 % of control

## CCCCCC[N+](CCCCCC)(CCCCCC)CCCCCC
endpoint: median survival time, dose: 0.75 mg/kg/injection, schedule: Q01DX009 (ip), vehicle: Klucel (hydroxypropylcellulose) (HPC), higher = longer survival
  T/C: 110 % of control
endpoint: median survival time, dose: 1.5 mg/kg/injection, schedule: Q01DX009 (ip), vehicle: Klucel (hydroxypropylcellulose) (HPC), higher = longer survival
  T/C: 91 % of control
endpoint: median survival time, dose: 3.0 mg/kg/injection, schedule: Q01DX009 (ip), vehicle: Klucel (hydroxypropylcellulose) (HPC), higher = longer survival
  T/C: 102 % of control

## [I][Hg][CH2]C1OCCOC1[CH2][Hg][I] (stereo not given)
endpoint: mean tumor weight, dose: 18.75 mg/kg/injection, schedule: Q01DX011 (ip), vehicle: saline, higher = larger tumour
  T/C: 79 % of control
endpoint: mean tumor weight, dose: 37.5 mg/kg/injection, schedule: Q01DX011 (ip), vehicle: saline, higher = larger tumour
  T/C: 64 % of control
endpoint: mean tumor weight, dose: 75.0 mg/kg/injection, schedule: Q01DX011 (ip), vehicle: saline, higher = larger tumour
  T/C: 54 % of control

## Fc1ccc(CSc2ncnc3c2ncn3C2CCCCO2)cc1 (stereo not given)
endpoint: mean tumor weight, dose: 200.0 mg/kg/injection, schedule: Q01DX011 (ip), vehicle: other, higher = larger tumour
  T/C: 73 % of control
endpoint: mean tumor weight, dose: 400.0 mg/kg/injection, schedule: Q01DX011 (ip), vehicle: other, higher = larger tumour
  T/C: 33 % of control
